Experimental data published in patent US10201531B2, “Indazolyl-oxo-isothiazole compounds” (MOCHIDA PHARMACEUTICAL CO., LTD., priority 2015, dated 2019).

System: Nrf2
Assay: Evaluation of Nrf2 activation ability (Nrf2d-LacZ / Keap1 HEK293 reporter, Beta-Glo luminescence)
Assay type: cell-based, human
Conditions: Pharmacological Test Example 1, rated A/B/C
Procedure, shortened: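 HEK293 cells stably expressing a human Nrf2 degron–LacZ fusion plus human Keap1 were exposed to compound for 3 h at 37° C. Reporter β-galactosidase was read by Beta-Glo luminescence after 1 h at RT. Activation is given as % of the signal with 100 nM CDDO-Im.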

SMILES | EC50 [nM]
Cc1cnc(-c2cnn(-c3cc(O)n[s+]3[O-])c2)cn1 (stereo not drawn) [Example 413] | 1000 to 5000
[O-][s+]1nc(O)cc1-n1cc(-c2cnc(C3CC3)cn2)cn1 (stereo not drawn) [Example 414] | < 1000
[O-][s+]1nc(O)cc1-n1cc(-c2cnc(C(F)(F)F)cn2)cn1 (stereo not drawn) [Example 415] | 1000 to 5000
Cc1cncc(-c2cnn(-c3cc(O)n[s+]3[O-])c2)n1 (stereo not drawn) [Example 416] | 1000 to 5000
[O-][s+]1nc(O)cc1-n1cc2cc(-c3cnccn3)ccc2n1 (stereo not drawn) [Example 417] | 1000 to 5000
Cn1c(=O)n(-c2cnn(-c3cc(O)n[s+]3[O-])c2)c2ccccc21 (stereo not drawn) [Example 419] | 1000 to 5000
CC1(C)C(=O)N(c2cnn(-c3cc(O)n[s+]3[O-])c2)c2ccccc21 (stereo not drawn) [Example 420] | 1000 to 5000
Cc1cnc(-c2cnn(-c3cc(O)n[s+]3[O-])c2)c(C)n1 (stereo not drawn) [Example 421] | 1000 to 5000
[O-][s+]1nc(O)cc1-n1cc(-n2cccn2)cn1 (stereo not drawn) [Example 422] | 5000 to 10000
[O-][s+]1nc(O)cc1-n1cc(-c2ncccn2)cn1 (stereo not drawn) [Example 423] | 1000 to 5000
Cn1c(=O)oc2cc(-c3cnn(-c4cc(O)n[s+]4[O-])c3)ccc21 (stereo not drawn) [Example 424] | 5000 to 10000
CN1C(=O)C(C)(C)c2cc(-c3cnn(-c4cc(O)n[s+]4[O-])c3)ccc21 (stereo not drawn) [Example 425] | 1000 to 5000
[O-][s+]1nc(O)cc1-n1cc(-c2cnccn2)cn1 (stereo not drawn) [Example 428] | 5000 to 10000
O=c1oc2cc(-c3cnn(-c4cc(O)n[s+]4[O-])c3)ccc2n1CC1CC1 (stereo not drawn) [Example 429] | 1000 to 5000
CC1(C)C(=O)N(CC2CC2)c2ccc(-c3cnn(-c4cc(O)n[s+]4[O-])c3)cc21 (stereo not drawn) [Example 430] | 1000 to 5000
Cc1ccnc(-c2cnn(-c3cc(O)n[s+]3[O-])c2)n1 (stereo not drawn) [Example 433] | 1000 to 5000
COc1nc(Cl)ccc1-c1cnn(-c2cc(O)n[s+]2[O-])c1 (stereo not drawn) [Example 435] | < 1000

SMILES | EC50 [nM]
[O-][s+]1nc(O)cc1-n1cc(C#Cc2ccc(Cl)nc2)cn1 (stereo not drawn) [Example 436] | < 1000
COc1nc(-c2ccc(C3CC3)nc2)ccc1-c1cnn(-c2cc(O)n[s+]2[O-])c1 (stereo not drawn) [Example 437] | 1000 to 5000
[O-][s+]1nc(O)cc1-n1cc(-c2ccc(F)nc2)cn1 (stereo not drawn) [Example 438] | 1000 to 5000
[O-][s+]1nc(O)cc1-n1cc(-c2ccc(Cl)nc2)cn1 (stereo not drawn) [Example 439] | < 1000
COc1nc(Cl)ccc1-c1cnn(-c2cc(O)n[s+]2[O-])c1 (stereo not drawn) [Example 440] | < 1000
[O-][s+]1nc(O)cc1-n1cc(-c2ccc(-c3ccc(N4CCCC4)nc3)nc2)cn1 (stereo not drawn) [Example 441] | < 1000
[O-][s+]1nc(O)cc1-n1cc(-c2ccc(-c3ccc(N4CCCCC4)nc3)nc2)cn1 (stereo not drawn) [Example 442] | < 1000
[O-][s+]1nc(O)cc1-n1cc(-c2ccc(F)nc2)cn1 (stereo not drawn) [Example 443] | 1000 to 5000
COc1ccc(-c2ccc(-c3cnn(-c4cc(O)n[s+]4[O-])c3)cn2)cn1 (stereo not drawn) [Example 444] | < 1000
[O-][s+]1nc(O)cc1-n1cc2cc(OCc3cccnc3)ccc2n1 (stereo not drawn) [Example 445] | 1000 to 5000
COc1cc(-c2ccc(-c3cnn(-c4cc(O)n[s+]4[O-])c3)cn2)ccn1 (stereo not drawn) [Example 446] | < 1000
COc1ncccc1-c1ccc(-c2cnn(-c3cc(O)n[s+]3[O-])c2)cn1 (stereo not drawn) [Example 447] | < 1000
[O-][s+]1nc(O)cc1-n1cc(CCc2ccc(Cl)nc2)cn1 (stereo not drawn) [Example 452] | 1000 to 5000
COc1nc(-c2ccnc(N3CCCC3)c2)ccc1-c1cnn(-c2cc(O)n[s+]2[O-])c1 (stereo not drawn) [Example 454] | < 1000
CN(c1ccc(-c2cnn(-c3cc(O)n[s+]3[O-])c2)cn1)C1CCOCC1 (stereo not drawn) [Example 459] | 1000 to 5000
CN1CCOc2cc(-c3ccc(CCc4cnn(-c5cc(O)n[s+]5[O-])c4)cn3)cnc21 (stereo not drawn) [Example 461] | 1000 to 5000
